Holding throughout (format): biochemical
Assay [1] deals with Nitric oxide synthase (neuronal, human recombinant) nNOS (Homo sapiens (Human), UniProt P29475). Nature of the assay: Human nNOS enzyme assay ([3H]-L-arginine to L-citrulline conversion). To be noted: for Selectivity eNOS/nNOS: ratio of human eNOS IC50 to human nNOS IC50; for IC50: recombinant human nNOS. Here is the method: (§1) nNOS (Human), eNOS (Human) and iNOS (Human) Enzyme Assay
(§2) Primary stock solutions of test compounds at a concentration of 6 mM were prepared from the 2 to 5 mg powder. The primary stock solutions of each test compound were prepared freshly in distilled water on the day of study to obtain a final concentration of 6 mM. For determination of IC50 values, 12 test compound concentrations were prepared as 3-fold serial dilutions. Concentration range of test compound utilized for nNOS were 0.001 to 300 μM and for eNOS were 0.003 to 1000 μM. The vehicle of the test compound or inhibitor was used as blank control. For non-specific activity, 100 μM L-NMMA was used. Runs using the IC50 concentration of L-NAME were done in parallel as controls.
(§3) All incubations are performed in duplicate
(§4) The reaction mixture was prepared on ice by adding the following components with a micropipette to a polypropylene microcentrifuge tube: • 10 μL of test compound, inhibitor or control (vehicle or L-NMMA) solution; • 25 μL of Reaction Buffer {25 mM Tris-HCl, 0.6 μM BH4, 0.2 μM FMN, 0.2 μM FAD}; • 5 μL of 10 mM NADPH solution {1 mM} (freshly prepared in 10 mM Tris-HCl (pH 7.4); • 5 μL of 6 mM CaCl2 {600 W}; • 5 μL of 1 mM Calmodulin {100 W}; and • 5 μL of 0.02 μg/μL nNOS or 0.12 μg/μL eNOS.
(§5) The above reaction mixture was pre-incubated at room temperature for 15 mins.
(§6) The reaction was started by the addition of the substrate (in 5 μL containing 1 μCi of [^3H]-L-Arginine+2.5 μM of unlabeled L-Arginine) to the reaction mixture. Total reaction volume is 60 μL.
(§7) The reaction was mixed using a vortex mixer and incubate the above reaction mixture at 37° C. in an incubator for 30 minutes.
(§8) To stop the reaction, 400 μL of ice-cold Stop Buffer was added at the end of the incubation period.
(§9) The reaction was then mixed using a vortex mixer, and the reaction samples were transferred to spin cups, which were centrifuged using a microcentrifuge, at 13,000 rpm for 30 sec. at room temperature.
(§10) The spin cups were removed from the holder, 450 μL of eluate (containing the unbound L-citrulline) were transferred to scintillation vials. 3 mL of scintillation fluid were added and the radioactivity was quantified in a liquid scintillation counter.
(§11) Data was analyzed using a Sigmoidal dose-response (variable slope) curve to determine the IC50 value of the test compound. Y=Bottom+(Top−Bottom)/(1+10^((Log IC50−X)*Hill Slope))

Assay [2] concerns the target Recombinant human inducible NOS (iNOS) (Homo sapiens (Human), UniProt P35228). Nature of the assay: Human iNOS enzyme assay (Protocol 1 or Protocol 2, radiometric). As for the experimental part:
The human iNOS assay was carried by either one of the two protocols as described herein:
Recombinant human inducible NOS (iNOS) was produced in Baculovirus-infected Sf9 cells (ALEXIS). In a radiometric method, NO synthase activity was determined by measuring the conversion of [^3H]L-arginine to [^3H]L-citrulline. To measure iNOS, 10 μL of enzyme was added to 100 μL of 100 mM HEPES, pH=7.4, containing 1 mM CaCl2, 1 mM EDTA, 1 mM dithiothreitol, 1 μM FMN, 1 μM FAD, 10 μM tetrahydrobiopterin, 120 μM NADPH, and 100 nM CaM.
To measure enzyme inhibition, a 15 μL solution of a test substance was added to the enzyme assay solution, followed by a pre-incubation time of 15 min at RT. The reaction was initiated by addition of 20 μL L-arginine containing 0.25 μCi of [^3H] arginine/mL and 24 μM L-arginine. The total volume of the reaction mixture was 150 μL in every well. The reactions were carried out at 37° C. for 45 minutes, The reaction was stopped by adding 20 μL of ice-cold buffer containing 100 mM HEPES, 3 mM EGTA, 3 mM EDTA, pH=5.5. [^3H]L-citrulline was separated by DOWEX (ion-exchange resin DOWEX 50 W×8-400, SIGMA) and the DOWEX was removed by spinning at 12,000 g for 10 min in the centrifuge. An aliquot (70 μL) of the supernatant was added to 100 μL of scintillation fluid, and the samples were counted in a liquid scintillation counter (1450 Microbeta Jet, Wallac). Specific NOS activity was reported as the difference between the activity recovered from the test solution and that observed in a control sample containing 240 mM of the inhibitor L-NMMA. All assays were performed at least in duplicate. Standard deviations are 10% or less.
Primary stock solutions of each test compound were prepared in distilled water on the day of study to obtain a final concentration of 6 mM. For the determination of IC50 values, 11 test compound concentrations were prepared as 3-fold serial dilutions. Test compounds were tested in the iNOS assay at a concentration of 1000 μM to 0.0169 μM. The vehicle of the test compound or inhibitor, distilled water, was used as blank control. For non-specific activity, 100 μM L-NMMA was run in parallel as a control.
All incubations were performed in duplicate
The reaction mixture was prepared on ice by the addition of the following components to the appropriate well of a 1.0 mL 96-well polypropylene plate:
10 μL of test compound, reference inhibitor, or control (vehicle or L-NMMA) solution;
25 μL of Reaction Buffer (50 mM Tris-HCl, 6 μM BH4, 2 μM FMN, 2 μM FAD);
5 μL of 10 mM NADPH solution;
5 μL of 1 μM Calmodulin; and
The reaction mixture was pre-incubated at room temperature for 15 minutes. Following this pre-incubation, the reaction was initiated by the addition of 5 μL of the substrate L-arginine (1 μCi of [^3H]-L-Arginine+30 μM of unlabeled L-Arginine) to the reaction mixture. The total reaction volume was 60 μL. The assay plate containing the reaction mixtures was sealed and incubated at 37° C. for 30 minutes. At the end of this incubation period, 400 μL of ice-cold Stop Buffer (the EDTA in the Stop Buffer chelates all of the available calcium) was added to each well to stop the reaction. 100 μL of equilibrated resin pH 5.5 was added to each of the assay wells. The reaction samples were vortexed and transferred to spin cups, after-which they were centrifuged at 13,000 rpm for 30 sec. The spin cups were removed from the holder and […] (containing the unbound L-citrulline) were added to the appropriate wells of a 96-well liquid scintillation plate. 175 μL of scintillation fluid were also added to each well. The plate was sealed, and radioactivity was quantitated using a Microbeta liquid scintillation counter.
Data were analyzed using a Sigmoidal dose-response (variable slope) curve to determine the IC50 value of the test compound. Y=Bottom+(Top−Bottom)/(1+10^((Log IC50−X)*Hill Slope))

In assay [3] the target is Nitric oxide synthase (endothelial, human recombinant) eNOS (Homo sapiens (Human), UniProt P29474). Nature of the assay: Human eNOS enzyme assay ([3H]-L-arginine to L-citrulline conversion). As for the experimental part:
as §1, §2, §3, §4, §5, §6, §7, §8, §9, §10, §11

Counter-ions that a name gives are not always drawn.

Usually IC50 stands for the point on the concentration scale where inhibition reaches its midpoint.

For `N=C(Nc1ccc2c(c1)SCCN2CCN1CCCCC1)c1cccs1` [Compound 14, N-(4-(2-(Piperidin-1-yl)ethyl)-3,4-dihydro-2H-benzo[b][1,4]thiazin-7-yl)thiophene-2-carboximidamide], the “Selectivity eNOS/nNOS” value in assay [1] was determined as 82.1. Also, the IC50 in assay [1] amounted to 0.14 µM; in assay [2], 172 µM; in assay [3] it was 11.5 µM.

In the case of `CN(C)CCN1CCSc2cc(NC(=N)c3ccco3)ccc21` [Compound 19, N-(4-(2-(dimethylamino)ethyl)-3,4-dihydro-2H-benzo[b][1,4]thiazin-7-yl)furan-2-carboximidamide], the “Selectivity eNOS/nNOS” value in assay [1] amounted to 676. For the same compound, the results for the half-inhibitory concentration (IC50) in assay [1], in assay [2] and in assay [3] were 0.14 µM, 136 µM and 94.7 µM, respectively.

On to `CNCCCN1CCSc2cc(NC(=N)c3cccs3)ccc21` [Compound 23, N-(4-(3-(methylamino)propyl)-3,4-dihydro-2H-benzo[b][1,4]thiazin-7-yl)thiophene-2-carboximidamide], for which the “Selectivity eNOS/nNOS” value in assay [1] is recorded as 664. Besides, the figures for the IC50 in assay [1], in assay [2] and in assay [3] were 0.028 µM, 172 µM and 18.6 µM, respectively.

With `N=C(Nc1ccc2c(c1)SCCN2CCCN1CCCC1)c1cccs1` [Compound 21, N-(4-(3-(pyrrolidin-1-yl)propyl)-3,4-dihydro-2H-benzo[b][1,4]thiazin-7-yl)thiophene-2-carboximidamide], the “Selectivity eNOS/nNOS” value in assay [1] amounted to 71.4. For the same compound, the IC50 came out at 0.14 µM in assay [1], 49.6 µM in assay [2] and 10 µM in assay [3].

For the compound `CNCCN1CCOc2ccc(NC(=N)c3cccs3)cc21` [Compound 10, N-(4-(2-(methylamino)ethyl)-3,4-dihydro-2H-benzo[b][1,4]oxazin-6-yl)-thiophene-2-carboximidamide dihydrochloride], the “Selectivity eNOS/nNOS” value in assay [1] worked out at 47.7. Moreover, the IC50 in assay [1] turned out to be 0.08 µM; in assay [2] it was 3.74 µM; in assay [3], 3.82 µM.

Regarding `N=C(Nc1ccc2c(c1)N(CCN1CCCC1)CCS2)c1cccs1` [Compound 25, N-(4-(2-(pyrrolidin-1-yl)ethyl)-3,4-dihydro-2H-benzo[b][1,4]thiazin-6-yl)thiophene-2-carboximidamide], in assay [1], the “Selectivity eNOS/nNOS” value is reported as 90.5. Also, the IC50 was 0.2 µM in assay [1], 43.6 µM in assay [2] and 18.1 µM in assay [3].

In the case of `CN1CCCC1CCN1CCSc2cc(NC(=N)c3cccs3)ccc21` (stereo not shown) [Compound 13, N-(4-(2-(1-methylpyrrolidin-2-yl)ethyl)-3,4-dihydro-2H-benzo[b][1,4]thiazin-7-yl)thiophene-2-carboximidamide], in assay [1], the “Selectivity eNOS/nNOS” value is 52.2. The IC50 came out at 0.19 µM in assay [1], 33.1 µM in assay [2] and 9.92 µM in assay [3].

As for `CNCCN1CCSc2ccc(NC(=N)c3cccs3)cc21` [Compound 28, N-(4-(2-(methylamino)ethyl)-3,4-dihydro-2H-benzo[b][1,4]thiazin-6-yl)thiophene-2-carboximidamide], the “Selectivity eNOS/nNOS” value in assay [1] worked out at 107.2. Further, the values for the concentration for half-maximal inhibition (IC50) in assay [1], in assay [2] and in assay [3] were 0.08 µM, 348 µM and 8.58 µM, respectively.

Consider `CN(CCN1CCSc2cc(NC(=N)c3cccs3)ccc21)CC(=O)O` [Compound 17, 2-(methyl(2-(7-(thiophene-2-carboximidamido)-2H-benzo[b][1,4]thiazin-4(3H)-yl)ethyl)amino)acetic acid dihydrochloride], for which the “Selectivity eNOS/nNOS” value in assay [1] is 9.3. For the same compound, the IC50 worked out at 1.16 µM in assay [1], 241 µM in assay [2] and 10.9 µM in assay [3].

With `N=C(Nc1ccc2c(c1)OCCN2CCN1CCCC1)c1cccs1` [Compound 4, N-(4-(2-(pyrrolidin-1-yl)ethyl)-3,4-dihydro-2H-benzo[b][1,4]oxazin-7-yl)thiophene-2-carboximidamide], the “Selectivity eNOS/nNOS” value in assay [1] turned out to be 61.2. The IC50 in assay [1] worked out at 0.41 µM; in assay [2], 2.7 µM; in assay [3], 25.1 µM.

With `N=C(Nc1ccc2c(c1)OCC(=O)N2CCN1CCCC1)c1cccs1` [Compound 3, N-(3-oxo-4-(2-(pyrrolidin-1-yl)ethyl)-3,4-dihydro-2H-benzo[b][1,4]oxazin-7-yl)thiophene-2-carboximidamide], the “Selectivity eNOS/nNOS” value in assay [1] was 16.2. The half-maximal inhibitory concentration (IC50) in assay [1] came to 0.85 µM; in assay [2], 1.5 µM; in assay [3], 13.8 µM.

For the compound `N=C(Nc1ccc2c(c1)N(C1CCNCC1)CCS2)c1cccs1` [Compound 29, N-(4-(piperidin-4-yl)-3,4-dihydro-2H-benzo[b][1,4]thiazin-6-yl)thiophene-2-carboximidamide], in assay [1], the “Selectivity eNOS/nNOS” value is on record as 396. Moreover, the values for the IC50 in assay [1], in assay [2] and in assay [3] were 0.11 µM, 76.8 µM and 43.6 µM, respectively.

For `N=C(Nc1ccc2c(c1)N(CCNCCO)CCS2)c1cccs1` [Compound 26, N-(4-(2-(2-hydroxyethylamino)ethyl)-3,4-dihydro-2H-benzo[b][1,4]thiazin-6-yl)thiophene-2-carboximidamide], the “Selectivity eNOS/nNOS” value in assay [1] was 56.5. The values for the IC50 in assay [1], in assay [2] and in assay [3] were 0.15 µM, 60.1 µM and 8.48 µM, respectively.

(Values after patent US8618286B2, “Benzoxazines, benzothiazines, and related compounds having NOS inhibitory activity” (NeurAxon, Inc., priority 2008, dated 2013).)
